Experimental findings from patent publication KR20220022782A, “아모디아퀸 및 아르테수네이트계 약물을 유효성분으로 함유하는 제2형 당뇨병 예방 또는 치료용 약학적 조성물” (priority 2020, dated 2022) are described below.

Data set [1] can be described thus: in vitro. Conditions: mouse, c2c12 myoblast cells.
Data set [2] has as its system C2C12 myoblast cell line (C2C12 myoblast 세포주). Kind of data set: in vitro.
Data set [3] deals with Akt phosphorylation (Akt 인산화). The data set can be described thus: Akt phosphorylation (western blotting) in palmitic acid-induced insulin-resistant C2C12 myotubes (Example 2). Conditions: single agent; general statement. It is filed as cell-based, mouse.
Data set [4] concerns C2C12 myotube cell line (C2C12 myotube 세포주). Kind of data set: Glucose uptake (2-NBDG, Glucose uptake cell-based assay kit) in palmitic acid-induced insulin-resistant C2C12 myotubes (Example 3). Particulars: single agent; general statement. Also noted: species or system mouse.

A word on the viability: it is a read-out of living cells in per cent, often relative to untreated cells. Turning to `C[C@H]1[C@H](OC(=O)CCC(=O)O)O[C@@H]2O[C@@]3(C)CC[C@H]4[C@H](C)CC[C@@H]1[C@@]24OO3` [아르테수네이트, 아르테수네이트(artesunate)], the viability at 12.5 µM in data set [1] is about 80%. Moreover, the “cytotoxicity (in words)” value in data set [2] was “세포 독성이 없음”.
Compound `CCN(CC)Cc1cc(Nc2ccnc3cc(Cl)ccc23)ccc1O` [아모디아퀸, 아모디아퀸(amodiaquine)] yielded a viability at 25 µM in data set [1] of about 80%. In data set [2], the “cytotoxicity (in words)” value was “세포 독성이 없음”. Besides, the “improvement of insulin resistance (in words)” value in data set [3] is “미미한 수준에 불과하다”. Moreover, in data set [4], the “promotion of glucose uptake (in words)” value is listed as “미미한 수준에 불과하다”.
